What is called Tm is the temperature at which the thermal transition is half complete.

The subject of this series is complementary RNA with the sequence 5′-AGCAAAAAACGC-3′ (SEQ ID NO: 6). In words: Thermal stability (Tm) assay. Format: binding. The note with it: for ΔTm: calculated relative to a DNA standard, same duplex and buffer as Tm; for Tm: duplex with complementary RNA strand, buffer 100 mM NaCl, 10 mM phosphate, 0.1 mM EDTA (pH 7), heating 0.5° C./min from 15° C. to 85° C. Here is the method: A series of modified morpholino oligomeric compounds were evaluated in a thermal stability (Tm) assay. A Cary 100 Bio spectrophotometer with the Cary Win UV Thermal program was used to measure absorbance vs. temperature. For the Tm experiments, oligomeric compounds were prepared at a concentration of 8 μM in a buffer of 100 mM NaCl, 10 mM phosphate and 0.1 mM EDTA (pH 7). The concentration of the oligonucleotides was determined at 85° C. The concentration of each oligomeric compound was […] after mixing of equal volumes of test oligomeric compound and complimentary RNA strand. Oligomeric compounds were hybridized with the complimentary RNA strand by heating the duplex to 90° C. for 5 minutes followed by cooling to room temperature. Using the spectrophotometer, Tm measurements were taken by heating the duplex solution at a rate of 0.5° C./min in cuvette starting @15° C. and heating to 85° C. Tm values were determined using Vant Hoff calculations (A260 vs temperature curve) using non self-complementary sequences where the minimum absorbance which relates to the duplex and the maximum absorbance which relates to the non-duplex single strand are manually integrated into the program. The oligomeric compounds were hybridized to complementary RNA with the sequence 5′-AGCAAAAAACGC-3′ (SEQ ID NO: 6). ΔTm's are calculated relative to a DNA standard.

Regarding “05/592592: GCGTTmRTTmRTTmRGCT, diamidate linkages, morpholino, 3′-cap NTr (trityl) (GCGTT_{mR}TT_{mR}TT_{mR}GCT; modified morpholino nucleosides, diamidate linkages, 3'-trityl cap, as printed in the source, key not given here)”, the ΔTm is listed as −0.8 and the Tm turned out to be 44.8 °C. For “05/592978: GCGTTqTTqTTqGCT, q = bicyclic morpholino, diamidate linkages, 3′-cap NTr (trityl) (GCGTT_{q}TT_{q}TT_{q}GCT; bicyclic morpholino, diamidate linkages, 3'-trityl cap, as printed in the source, key not given here)”, in that order: −2.2 and 43.4 °C. For “05/585595: GCGTTmRTTmRTTmRGCT, diamidate linkages, morpholino, 3′-cap NH (GCGTT_{mR}TT_{mR}TT_{mR}GCT; morpholino oligomer, diamidate linkages, modified morpholino nucleosides at marked places, 3'-NH cap, as printed in the source, key not given here)”, in that order: 5.3 °C and 50.9 °C. For “05/standard: DNA standard GCGTTTTTTGCT, PO linkages, unmodified DNA, 3′-cap OH (unmodified DNA) [reference compound]”, the Tm came to 45.6 °C.

On to “05/592979: GCGTTqTTqTTqGCT, q = bicyclic morpholino, diamidate linkages, 3′-cap NH (GCGTT_{q}TT_{q}TT_{q}GCT; morpholino oligomer, diamidate linkages, bicyclic morpholino at marked places, 3'-NH cap, as printed in the source, key not given here)”, for which the ΔTm is 3 °C and the Tm was 48.6 °C. As to “05/592594: GCGTTmSTTmSTTmSGCT, diamidate linkages, morpholino, 3′-cap NTr (trityl) (GCGTT_{mS}TT_{mS}TT_{mS}GCT; morpholino oligomer, diamidate linkages, modified morpholino nucleosides at marked places, 3'-trityl cap, as printed in the source, key not given here)”, the ΔTm was 5.1 °C and the Tm amounted to 50.7 °C.

In the case of “05/592595: GCGTTmSTTmSTTmSGCT, diamidate linkages, morpholino, 3′-cap NH (GCGTT_{mS}TT_{mS}TT_{mS}GCT; modified morpholino nucleosides, diamidate linkages, 3'-NH cap, as printed in the source, key not given here)”, the ΔTm was 10 °C and the Tm came out at 55.6 °C.

The values above are taken from patent publication US9688707B2, “Bicyclic morpholino compounds and oligomeric compounds prepared therefrom” (Ionis Pharmaceuticals, Inc., priority 2014, dated 2017).
